Molecules are shown by their SMILES. Where “and” joins values, the source holds several entries; their conditions need not be identical. Equal entries are not always repeated.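 Grown in 96-well plates, cells were treated for 48 hours with each compound at five concentrations. Insufficient inhibition: endpoint recorded as highest concentration tested. GI50: concentration for 50% inhibition of growth. TGI marks complete inhibition of growth.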

The text below walks through data of PubChem BioAssay (NCI).

Test systems include HCT-116 colon; KM12 colon; LOX IMVI melanoma; OVCAR-4 ovarian; OVCAR-5 ovarian; SK-MEL-5 melanoma; TK-10 renal; U251 CNS; DU-145 prostate; MDA-N.
Assay in all cases: growth of human tumour cells (NCI), 48 h

Turning to `Nc1nc(-c2ccco2)cc(-c2ccc(CO)o2)n1`, the TGI with HCT-116 colon, in the experiment with KM12 colon, in the experiment with LOX IMVI melanoma, in the experiment with OVCAR-4 ovarian, in the experiment with OVCAR-5 ovarian and in the experiment on SK-MEL-5 melanoma was > 100 µM throughout. Moreover, in the experiment on TK-10 renal, the TGI is > 100 µM.

On to `COC1=C(C)C(=O)c2c(cc3c(c2O)C(C)(CCC=C(C)C)C(C)O3)C1=O` (stereo not given), for which the TGI was > 100 µM with HCT-116 colon; > 100 µM in the experiment with KM12 colon; > 100 µM with LOX IMVI melanoma; > 100 µM in the experiment on OVCAR-4 ovarian; > 100 µM in the experiment with OVCAR-5 ovarian; 27.4 µM with SK-MEL-5 melanoma. Moreover, the TGI with TK-10 renal and with U251 CNS was > 100 µM in each case.

With `COc1cc(C2c3cc4c(cc3[C@@H](NCCN3CCOCC3)C3COC(=O)[C@H]23)OCO4)cc(OC)c1O` (stereo not given in full), the TGI with HCT-116 colon was 15.8 µM and > 17.5 µM; in the experiment with KM12 colon, 12.1 µM and > 17.5 µM; with LOX IMVI melanoma it was 7.95 µM and 5.02 µM; in the experiment on OVCAR-4 ovarian, 39.3 µM and > 17.5 µM; in the experiment with SK-MEL-5 melanoma, 1.88 µM and 12.7 µM; with TK-10 renal, 21.7 µM and > 17.5 µM. For the same molecule, in the experiment with U251 CNS, the TGI was 5.46 µM and 5.53 µM. Moreover, the GI50 in the experiment with SK-MEL-5 melanoma is 877 nM and 2770 nM.

For the molecule `O=C1c2ccccc2N2Oc3ccccc3C12c1ccccc1` (stereo not given), the TGI in the experiment with HCT-116 colon, in the experiment on OVCAR-4 ovarian, with SK-MEL-5 melanoma and with U251 CNS was > 100 µM in each case.

For the molecule `CCCCCCCCC/C=C1\CCC(CN(C)C)C1=O` (stereo not given), the TGI turned out to be 3.67 µM with HCT-116 colon; 3.84 µM in the experiment on KM12 colon; 2.59 µM with LOX IMVI melanoma; 28 µM with OVCAR-5 ovarian; 3.9 µM with SK-MEL-5 melanoma; 4.53 µM in the experiment on TK-10 renal. Further, the TGI in the experiment with U251 CNS came to 3.02 µM.

For `Cc1ccc(N/C(SCc2ccccc2)=C(\C(Cl)=C(Cl)Cl)[N+](=O)[O-])c(C)c1`, the TGI with DU-145 prostate was > 100 µM; in the experiment with HCT-116 colon, 37 µM; in the experiment on KM12 colon, > 100 µM; in the experiment on MDA-N, 65.1 µM; in the experiment on OVCAR-4 ovarian, 54 µM; with OVCAR-5 ovarian, 89.8 µM. In addition, in the experiment with U251 CNS, the TGI came out at 29.3 µM.

For the molecule `COc1ccccc1C1c2cc3c(cc2OC(N2CCOCC2)C1C)OCO3` (stereo not given), the TGI in the experiment on DU-145 prostate was found to be 51.4 µM; in the experiment with HCT-116 colon it was 26.2 µM; in the experiment on KM12 colon, 39.6 µM; in the experiment with LOX IMVI melanoma, 35.2 µM; with MDA-N, 24.8 µM; in the experiment with OVCAR-5 ovarian, 41.1 µM. Moreover, the TGI with SK-MEL-5 melanoma was 31.2 µM; in the experiment on TK-10 renal it was > 100 µM.

`N#CNC(=NCCc1c[nH]c2ccccc12)Oc1ccccc1`: the TGI with HCT-116 colon, in the experiment with KM12 colon, in the experiment with LOX IMVI melanoma, with OVCAR-4 ovarian, in the experiment with OVCAR-5 ovarian and in the experiment with SK-MEL-5 melanoma was > 100 µM in each case. Moreover, the TGI in the experiment on TK-10 renal and with U251 CNS was > 100 µM throughout.

With `N#Cc1c(-c2ccccc2)c(CN2CCCCC2)c(=O)n2c1[nH]c1ccccc12`, the TGI was > 100 µM with HCT-116 colon; > 100 µM in the experiment with KM12 colon; 50.8 µM in the experiment with LOX IMVI melanoma; > 100 µM in the experiment on MDA-N; > 100 µM in the experiment on OVCAR-4 ovarian; > 100 µM with OVCAR-5 ovarian. Further, the TGI was 34.1 µM in the experiment on SK-MEL-5 melanoma, > 100 µM in the experiment with TK-10 renal and > 100 µM in the experiment with U251 CNS.

Consider `ClCCCCCc1c2nc(c(CCCCCCl)c3ccc([nH]3)c(CCCCCCl)c3ccc([nH]3)c(CCCCCCl)c3nc1C=C3)C=C2`, for which the TGI in the experiment with HCT-116 colon, in the experiment on KM12 colon, in the experiment on LOX IMVI melanoma, in the experiment on MDA-N, in the experiment with OVCAR-4 ovarian and in the experiment on OVCAR-5 ovarian was > 100 µM in each case. The TGI in the experiment on SK-MEL-5 melanoma, with TK-10 renal and in the experiment on U251 CNS was > 100 µM in each case.

For `Cc1cccc(N/C(Sc2ccccc2)=C(/C(Cl)=C(Cl)Cl)[N+](=O)[O-])c1`, the TGI worked out at 62.2 µM in the experiment with DU-145 prostate; 28.7 µM in the experiment on HCT-116 colon; 48.6 µM with KM12 colon; 45.8 µM with MDA-N; 38.6 µM with OVCAR-4 ovarian; 40.8 µM with OVCAR-5 ovarian. Also, in the experiment on U251 CNS, the TGI came to 31.9 µM.

With `COc1cccc(/C=C2\S/C(=N/Nc3nc(-c4ccc([N+](=O)[O-])cc4)cs3)NC2=O)c1O`, the TGI with DU-145 prostate was found to be 68.1 µM; with HCT-116 colon it was 27.8 µM; with KM12 colon it was 26.9 µM; in the experiment with LOX IMVI melanoma, 17.1 µM; with MDA-N, 57.5 µM; with OVCAR-5 ovarian, 54.7 µM. In addition, the TGI in the experiment with SK-MEL-5 melanoma is 25.5 µM; with TK-10 renal, 67.6 µM; in the experiment on U251 CNS it was 7.66 µM.

On to `COc1cccc(C2c3cc4c(cc3OC(Nc3ccccc3)C2C)OCO4)c1OC` (stereo not given), for which the TGI with DU-145 prostate, in the experiment with HCT-116 colon, with KM12 colon, in the experiment on LOX IMVI melanoma, in the experiment on MDA-N and in the experiment with OVCAR-5 ovarian was > 100 µM in each case. Further, the TGI with SK-MEL-5 melanoma, with TK-10 renal and in the experiment with U251 CNS was > 100 µM each time.

As to `COc1ccc2nc3cccc([N+](=O)[O-])c3c(NCCCO)c2c1`, the TGI in the experiment with DU-145 prostate is 15.6 µM; in the experiment with HCT-116 colon, 1.01 µM; in the experiment on KM12 colon, 0.0146 µM and 0.0141 µM; with OVCAR-4 ovarian, 0.0312 µM and 0.0859 µM; in the experiment on OVCAR-5 ovarian it was 0.0177 µM and 0.0148 µM; with SK-MEL-5 melanoma it was 0.00431 µM. In the experiment on U251 CNS, the TGI was 0.108 µM and 0.16 µM. Besides, the GI50 was 1.83 nM in the experiment with KM12 colon; 8.5 nM and 47.1 nM in the experiment on LOX IMVI melanoma; 10.4 nM and 23 nM in the experiment with OVCAR-4 ovarian; 1.81 nM in the experiment with OVCAR-5 ovarian; 1.88 nM with TK-10 renal.

With `CC(=O)OC(Cc1c(O)c2c(C)cccc2oc1=O)C(C)(C)O` (stereo not given), the TGI in the experiment on DU-145 prostate, with HCT-116 colon, in the experiment on KM12 colon, in the experiment with LOX IMVI melanoma, in the experiment on MDA-N and in the experiment with OVCAR-5 ovarian was > 100 µM throughout. Also, the TGI with SK-MEL-5 melanoma, with TK-10 renal and with U251 CNS was > 100 µM each time.

For `CC1=C(C)SC(=C2Sc3nc(O)[nH]c(=O)c3S2)S1`, the TGI in the experiment on DU-145 prostate, in the experiment with HCT-116 colon, in the experiment on KM12 colon, in the experiment on LOX IMVI melanoma, in the experiment on OVCAR-4 ovarian and with OVCAR-5 ovarian was > 100 µM in each case. In addition, the TGI with SK-MEL-5 melanoma, in the experiment on TK-10 renal and in the experiment on U251 CNS was > 100 µM throughout.
